# Target: α7 nAChR subtype (Rattus norvegicus, UniProt Q05941)
# Type: binding
# Sequence of α7 nAChR subtype (Q05941 23-502 limits assumed): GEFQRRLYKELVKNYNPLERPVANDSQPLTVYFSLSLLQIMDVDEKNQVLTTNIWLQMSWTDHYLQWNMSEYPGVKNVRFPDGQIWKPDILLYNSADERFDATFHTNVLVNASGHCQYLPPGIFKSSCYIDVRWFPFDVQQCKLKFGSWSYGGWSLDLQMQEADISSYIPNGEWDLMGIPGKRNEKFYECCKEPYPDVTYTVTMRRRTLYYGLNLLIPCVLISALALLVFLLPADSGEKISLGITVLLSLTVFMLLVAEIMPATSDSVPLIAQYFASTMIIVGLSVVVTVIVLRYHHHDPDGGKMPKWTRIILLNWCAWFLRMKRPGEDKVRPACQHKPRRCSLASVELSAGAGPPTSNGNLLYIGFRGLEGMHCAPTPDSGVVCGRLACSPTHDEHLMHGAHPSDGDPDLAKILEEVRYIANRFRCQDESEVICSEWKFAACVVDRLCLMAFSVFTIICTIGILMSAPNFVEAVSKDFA
substance,measurement,value
^125I-α—Bungarotoxin [^125I-α-BTX],Kd,1.67 nM
